Assay results published in ChEMBL document CHEMBL3745699, “Structural insights into mechanisms for inhibiting amyloid β42 aggregation by non-catechol-type flavonoids” (Bioorg Med Chem, 2016).
The source made the active and inactive calls. The calls are words filed in the database; no cut-off is given here.

How the values were obtained:
[1] = Drug level treated with kaempferol after 4 hrs by LC/Q Tof-MS/MS analysis; assay type: physicochemical
[2] = target: Amyloid-beta precursor protein (Homo sapiens) (UniProt P05067); test: Inhibition of nucleation phase of HFIP-treated 15N-labelled wild type Amyloid beta (1 to 42) (unknown origin) assessed as time required for nucleation at 50 uM by Thioflavin-T fluorescence assay in presence of fibril seed
Sequence of Amyloid-beta precursor protein (Homo sapiens) (P05067 whole entry): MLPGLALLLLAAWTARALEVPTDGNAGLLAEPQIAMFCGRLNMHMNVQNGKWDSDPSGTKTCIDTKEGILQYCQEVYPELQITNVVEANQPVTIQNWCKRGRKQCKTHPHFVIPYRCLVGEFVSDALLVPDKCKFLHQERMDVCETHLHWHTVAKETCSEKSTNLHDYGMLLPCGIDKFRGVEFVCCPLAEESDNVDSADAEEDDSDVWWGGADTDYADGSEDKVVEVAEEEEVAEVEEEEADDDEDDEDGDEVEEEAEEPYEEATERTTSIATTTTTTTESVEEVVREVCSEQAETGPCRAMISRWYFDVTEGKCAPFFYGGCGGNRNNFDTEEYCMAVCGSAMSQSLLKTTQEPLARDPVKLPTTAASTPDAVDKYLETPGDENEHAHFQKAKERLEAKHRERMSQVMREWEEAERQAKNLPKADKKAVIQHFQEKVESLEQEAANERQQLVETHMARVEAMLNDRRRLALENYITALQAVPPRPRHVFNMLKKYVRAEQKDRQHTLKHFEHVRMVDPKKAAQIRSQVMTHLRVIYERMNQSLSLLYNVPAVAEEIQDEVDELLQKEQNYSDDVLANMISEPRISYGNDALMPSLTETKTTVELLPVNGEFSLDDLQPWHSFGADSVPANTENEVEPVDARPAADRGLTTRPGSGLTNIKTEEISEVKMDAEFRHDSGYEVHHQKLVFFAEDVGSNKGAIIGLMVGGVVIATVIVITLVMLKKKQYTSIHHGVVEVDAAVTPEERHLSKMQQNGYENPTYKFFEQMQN

[3] = target: Amyloid-beta precursor protein (Homo sapiens) (UniProt P05067); test: Inhibition of wild type amyloid beta (1 to 42) (unknown origin) aggregation at 50 uM by Thioflavin-T fluorescence assay
[4] = target: Amyloid-beta precursor protein (Homo sapiens) (UniProt P05067); test: Inhibition of wild type Amyloid beta (1 to 42) (unknown origin) aggregation at 50 uM under ambient condition by Thioflavin-T fluorescence assay
[5] = target: Amyloid-beta precursor protein (Homo sapiens) (UniProt P05067); test: Inhibition of wild type Amyloid beta (1 to 42) (unknown origin) aggregation at 50 to 100 uM under anaerobic condition after 5 days by Thioflavin-T fluorescence assay
[6] = target: Amyloid-beta precursor protein (Homo sapiens) (UniProt P05067); test: Inhibition of Amyloid beta (1 to 42) 13,14 A2 mutant (unknown origin) aggregation at 50 uM by Thioflavin-T fluorescence assay
[7] = Stability of the compound assessed as compound remaining after 48 hrs by HPLC analysis; assay type: physicochemical; conditions: read-out: Stability
[8] = target: Amyloid-beta precursor protein (Homo sapiens) (UniProt P05067); test: Inhibition of elongation phase of HFIP-treated 15N-labelled wild type Amyloid beta (1 to 42) (unknown origin) at 50 uM by Thioflavin-T fluorescence assay in presence of fibril seed
[9] = Drug degradation assessed as autoxidation at 500 uM at 4 degC after 4 hrs by UV-visible spectrophotometric analysis in presence of wild type Amyloid beta (1 to 42) (unknown origin); assay type: physicochemical
[10] = Drug degradation assessed as autoxidation at 50 uM under argon atmosphere at 37 degC after 2 to 48 hrs by UV-visible spectrophotometric analysis in presence of wild type Amyloid beta (1 to 42) (unknown origin); assay type: physicochemical
[11] = target: Amyloid-beta precursor protein (Homo sapiens) (UniProt P05067); conditions: 50 uM
Description: Inhibition of wild type Amyloid beta (1 to 42) (unknown origin) aggregation at 50 uM after 48 hrs by TEM analysis

[12] = Drug degradation assessed as autoxidation at 500 uM at 4 degC after 1 hr by UV-visible spectrophotometric analysis in presence of wild type Amyloid beta (1 to 42) (unknown origin) relative to morin and datiscetin; assay type: physicochemical; conditions: read-out: Drug degradation
[13] = Drug degradation after 48 hrs by HPLC analysis; assay type: physicochemical; conditions: read-out: Drug degradation
[14] = Drug metabolism assessed as 2,4,6-trihydroxybenzaldehyde formation after 4 hrs by LC/Q Tof-MS/MS analysis; assay type: physicochemical
[15] = Drug degradation assessed as autoxidation at 50 uM at 37 degC after 2 to 48 hrs by UV-visible spectrophotometric analysis in presence of wild type Amyloid beta (1 to 42) (unknown origin); assay type: physicochemical
[16] = target: Amyloid-beta precursor protein (Homo sapiens) (UniProt P05067); conditions: 500 uM
Description: Inhibition of elongation phase of HFIP-treated 15N-labelled wild type Amyloid beta (1 to 42) (unknown origin) at 500 uM by Thioflavin-T fluorescence assay in presence of fibril seed

O=C(O)C(=O)c1ccc(O)cc1
Drug metabolism [1]: metabolite_detected
TIME [2]: 3 h
inhibition [3]: Active

O=C1Oc2cc(O)cc(O)c2C1=O
Drug metabolism [1]: metabolite_detected
TIME [2]: 3 h
inhibition [3]: Active

O=C(O)C(=O)c1c(O)cc(O)cc1O
Drug metabolism [1]: metabolite_detected
TIME [2]: 3 h
inhibition [3]: Active

O=c1c(OOc2c(-c3ccc(O)cc3)oc3cc(O)cc(O)c3c2=O)c(-c2ccc(O)cc2)oc2cc(O)cc(O)c12
Drug metabolism [1]: metabolite_detected
TIME [2]: 3 h
inhibition [3]: Active

O=C(O)c1c(O)cc(O)cc1O
Drug metabolism [1]: metabolite_detected
TIME [2]: 3 h
inhibition [3]: Active

O=C1C(=O)C(O)(c2ccc(O)cc2)Oc2cc(O)cc(O)c21 (stereo not drawn)
Drug metabolism [1]: metabolite_detected
TIME [2]: 3 h
inhibition [3]: Active

O=c1cc(-c2ccc(O)cc2)oc2cc(O)cc(O)c12 [APIGENIN]
Drug metabolism [1]: metabolite_detected
TIME [2]: 3 h
inhibition [3]: Active

O=c1c(O)c(-c2ccccc2O)oc2cc(O)cc(O)c12 [DATISCETIN]
inhibition [4]: Active
inhibition [5]: Active
inhibition [6]: Active
remaining at 48 h [7]: > 80%
TIME [2]: 6 h
inhibition [8]: Active
Stability [9]: Stable
Stability [10]: Stable
inhibition [11]: Active

O=c1c(O)c(-c2ccc(O)cc2)oc2cc(O)cc(O)c12 [KAEMPFEROL]
inhibition [4]: Active
inhibition [5]: Active
degraded at 1 h, 500 µM [12]: 70%
degraded at 48 h [13]: > 80%
Drug metabolism [14]: metabolite_detected
TIME [2]: 3 h
Stability [15]: Unstable
Stability [10]: Stable
inhibition [16]: Active

O=c1c(O)c(-c2ccc(O)cc2O)oc2cc(O)cc(O)c12 [MORIN]
inhibition [4]: Active
inhibition [5]: Active
inhibition [6]: Active
remaining at 48 h [7]: > 80%
TIME [2]: 10 h
inhibition [8]: Active
Stability [9]: Stable
Stability [10]: Stable

O=C(O)c1ccc(O)cc1 [PARABEN]
Drug metabolism [1]: metabolite_detected
TIME [2]: 3 h
inhibition [3]: Active

O=Cc1c(O)cc(O)cc1O [PHLOROGLUCINALDEHYDE]
Drug metabolism [1]: metabolite_detected
TIME [2]: 3 h
inhibition [3]: Active
